{"source": "patent US9012652B2", "about": "“Processes for producing cycloalkylcarboxamido-pyridine benzoic acids” (Vertex Pharmaceuticals Incorporated, priority 0208, dated 2015)", "test": "solubility in water", "type": "physicochemical", "details": "stated in words in the process description", "note": "Structures can show the parent of a compound that is named as a salt."}
{"smiles": "Cc1ccc(NC(=O)C2(c3ccc4c(c3)OC(F)(F)O4)CC2)nc1-c1cccc(C(=O)O)c1", "note": "[compound 9, 3-(6-(1-(2,2-difluorobenzo[d][1,3]dioxol-5-yl)cyclopropanecarboxamido)-3-methylpyridin-2-yl)benzoic acid.HCL salt]", "values": [{"measurement": "solubility in water", "value": "sparingly soluble"}]}
